The target in assay [1] is T1, PHGDH (Homo sapiens (Human), UniProt O43175). Briefly: PHGDH inhibition, coupled assay with PSAT1/PSPH and diaphorase/resazurin readout. The conditions noted are these: Table E9; mixture with PSAT1, PSPH; diaphorase/resazurin reporter. It counts as biochemical.
Method: Compounds of the invention were assayed for inhibition of the activity phosphoglycerate dehydrogenase (PHGDH). The compounds were assayed in a mixture comprising PHGDH, PSAT1, PSPH, NADH, and glutamate. Diaphorase and resazurin were used as a fluorescent reporter system.
In this endogenous pathway coupled assay, the production of NADH by PHGDH was measured through the diaphorasemediated reduction of resazurin (See, e.g., Chakraborty, S., Sakka, M., Kimura, T. & Sakka, K. “Characterization of a dihydrolipoyl dehydrogenase having diaphorase activity of Clostridium kluyveri.” BioscL Biotechnol. Biochem. 72, 982-988 (2008)).
PHGDH assay buffer contained 50 mM TEA pH 8.0, 10 mM MgCl2, 0.05% BSA, and 0.01% Tween-20. PHGDH enzyme buffer consisted of assay buffer with 20 nM PHGDH and 0.2 mg/mL diaphorase. PHGDH substrate buffer contained 0.3 mM NAD 1.25 mM glutamate, 0.1 mM 3-phosphoglycerate, 0.2 mM resazurin, 1 μM PSAT1, and 1 μM PSPH. qHTS was performed in 1536-well plates dispensed with a BioRAPTR FRD. Each well contained equal volumes of substrate buffer and assay buffer. Plates were read at 0 minutes and 20 minutes at room temperature with a ViewLux uHTS Microplate Imager (PerkinElmer). Follow-up assays were performed in black 384-well plates (Greiner) in 20 μL of enzyme buffer to which compounds were added in dose-response with an HP D300 digital dispenser (Hewlett-Packard), followed by addition of 20 μL of substrate buffer. Plates were incubated at room temperature (25° C.) and read at 0 and 20 minutes with a Spectramax M5 plate reader (Molecular Devices) in fluorescence intensity mode with a λex=550 nm and λem=600 nm (emission cutoff=590 nm).
The subject of assay [2] is MDA-MB-231 cells over-expressing PHGDH. Briefly: Intracellular serine in MDA-MB-231 cells expressing PHGDH, medium lacking serine and glycine (LC-MS). It counts as cell-based, human. The conditions noted are these: media lacking serine and glycine. Here is the method:
To examine target engagement of PHGDH inhibitors in cells, MDA-MB-231 cells that lack detectable expression of PHGDH and MDA-MB-231 cells that stably express full-length human PHGDH (MDA-MB-231-PHGDH) were treated with PHGDH inhibitors in RPMI lacking serine and glycine. A MDA-MB-231 cell line was constructed which expresses PHGDH for comparison against the MDA-MB-231 empty vector line. MDA-MB-231 breast cancer cells were infected with PHGDH-expressing retrovirus.
MDA-MB-231 cells are incapable of synthesizing serine, but the addition of PHGDH permits these cells to synthesize serine. […] Concentrations of serine were determined by comparison with signals of internal standards and calibration curves. PHGDH inhibition reduces steady-state levels of intracellular serine in MDA-MB-231 cells over-expressing PHGDH. Studies were also performed in MDA-MB-468 cells, which over-express PHGDH and are PHGDH-dependent.
Cells were evenly seeded at 400,000 cells per well of a 6-well plate and allowed to attach for 24 hours. Prior to all labeling experiments, cells were pretreated with 10 μM compound or an equivalent volume of DMSO in RPMI for 1 hour. For steady-state metabolite concentrations, cells were washed with PBS prior to pretreatment and treatment in RPMI lacking serine and glycine. For labeling experiments, U-^13C-glucose, U-^13C-serine, or U-^13C-glycine replaced the corresponding unlabeled RPMI component. Cells were washed in 4° C. […] Triplicate identically seeded wells were trypsinzed and analyzed with a Multisizer Coulter Counter (Beckman Coulter) to obtain cell counts and total cell volumes for normalization.
Dried metabolites were resuspended in 100 μL water, centrifuged at 13,000×g at 4° C. for 10 minutes, and the supernatant recovered for analysis. […] Metabolites were monitored using a polarity-switching full-scan method and identified by accurate mass (±20 ppm) and retention time within 15 seconds of a previously run pure standard. […]

The target in a further assay is HSD17B4 (Homo sapiens (Human), UniProt P51659). Nature of the assay: Counter-screen against HSD17B4. It counts as biochemical. The conditions noted are these: Table E11.
In a further assay the test system is MDA-MB-468 cells. Briefly: Metabolite profiling and 13C labeling in MDA-MB-468 cells (LC-MS). It counts as cell-based, human. The conditions noted are these: washout. Here is the method:
To track the effects of PHGDH inhibition on glycolysis and serine biosynthesis, MDA-MB-231 and MDA-MB-468 cells were fed universally labeled carbon-13 glucose and the intracellular ratio of labeled to unlabeled glucose was measured at the times indicated in FIG. 3E.
Cells were evenly seeded at 400,000 cells per well of a 6-well plate and allowed to attach for 24 hours. Prior to all labeling experiments, cells were pretreated with 10 μM compound or an equivalent volume of DMSO in RPMI for 1 hour. For steady-state metabolite concentrations, cells were washed with PBS prior to pretreatment and treatment in RPMI lacking serine and glycine. For labeling experiments, U-^13C-glucose, U-^13C-serine, or U-^13C-glycine replaced the corresponding unlabeled RPMI component. Cells were washed in 4° C. 0.9% (w/v) NaCl in LCMS-grade water and extracted in 1 mL/well of 80:20 (v/v) methanol:water with 0.01 ng/mL Val-d8 and Phe-d8 as internal extraction standards. The extraction solvent was dried under nitrogen gas and metabolite samples were stored at −80° C. until analysis. Triplicate identically seeded wells were trypsinzed and analyzed with a Multisizer Coulter Counter (Beckman Coulter) to obtain cell counts and total cell volumes for normalization.
Dried metabolites were resuspended in 100 μL water, centrifuged at 13,000×g at 4° C. for 10 minutes, and the supernatant recovered for analysis. Chromatographic separation was achieved by injecting 1 pi of sample on a SeQuant ZIC-pHILIC Polymeric column (2.1 3 150 mm […], EMD Millipore). Flow rate was set to 0.1 ml per minute, column compartment was set to 25° C., and autosampler sample tray was set to 4° C. Mobile Phase A consisted of 20 mM ammonium carbonate, 0.1% ammonium hydroxide. Mobile Phase B was 100% acetonitrile. The mobile phase gradient (% B) was as follows: 0 min 80%, 30 min 20%, 31 min 80%, 42 min 80%. All mobile phase was introduced into the ionization source set with the following parameters: sheath gas=40, auxiliary gas=15, sweep gas=5, spray voltage=−3.1 kV or +3.0 kV, capillary temperature=275° C., S-lens RF level=40, probe temperature=350° C. Metabolites were monitored using a polarity-switching full-scan method and identified by accurate mass (±20 ppm) and retention time within 15 seconds of a previously run pure standard. Metabolite peaks were identified and integrated with Xcalibur v.2.2 software (Thermo Fisher Scientific) and normalized to internal standard and to total cell volume, m/z ratios for stable isotopically labeled metabolites were obtained from IsoMETLIN (See, e.g., Cho, K. et al. “isoMETLIN: a database for isotope-based metabolomics.” Anal Chem 86, 9358-9361 (2014)) and corrected for natural abundance.

For the next assay, the target named is ALDH (Homo sapiens (Human), UniProt P00352). Briefly: Counter-screen against ALDH. The conditions noted are these: Table E11. It counts as biochemical.
Assay [3] deals with panel of other dehydrogenases. Briefly: Panel of other dehydrogenases. It counts as biochemical.
For another assay, the target named is GAPDH (Homo sapiens (Human), UniProt P04406). Briefly: Counter-screen against GAPDH. It counts as biochemical. The conditions noted are these: Table E11. Here is the method:
GAPDH substrate buffer contained 210 mM Tris pH 7.4, 2.5 mM NaH2PO4 pH 7.4, 2 mM DL-Glyceraldehyde 3-phosphate, 1.75 mM MgCl2, 0.01 mM NAD+, 0.11 mM resazurin, 0.2 mg/mL BSA, and 0.01% Tween-20. GAPDH enzyme buffer contained 50 mM Tris pH 7.4, 100 mM NaCl, 0.02 mM TCEP, 0.01 mM EDTA, 0.1 mg/mL BSA, 0.42 mg/mL diaphorase, and 2.5 nM GAPDH. The GAPDH, GPD1, and GPD1L assays were run in 384-well plates using the same protocol and readout as the PHGDH assay. […] GPD1 enzyme buffer contained 50 mM Tris pH 7.4, 100 mM NaCl, 0.08 mM TCEP, 0.4 mg/mL BSA, 0.03 μM EDTA, and 0.8 nM GPD1. 70 μL of substrate buffer were mixed with 10 μL enzyme buffer. GPD1L substrate buffer contained 200 mM Tris pH 7.4, 0.05 mM sn-G3-P, 2 mM MgCl2, 0.04 mM NAD+, 0.11 mM resazurin, 0.1 mg/mL BSA, and 0.02% Tween-20. GPD1L enzyme buffer contained 50 mM Tris pH 7.4, 100 mM NaCl, 0.02 mM TCEP, 0.42 mg/mL diaphorase, 0.1 mg/mL BSA, 0.008 μM EDTA, and 16 nM GPD1L. 40 μL of substrate buffer were mixed with 40 μL of enzyme buffer.
The GAPDH and GPD1L assays were read using the same protocol as the PHGDH assay. The GPD1 assay was read using loss of NADH fluorescence (λex=340 nm and λem=460 nm).

The next assay has as its system panel of 168 GPCRs. Briefly: Cross-reactivity in a panel of 168 GPCRs.
Assay [4] deals with T1, PHGDH. Briefly: Differential scanning fluorimetry. It counts as binding. Here is the method:
Destabilization has been previously observed in the specific binding of small molecules to their protein targets (see, e.g., Hamiaux, C. et al. “DAD2 is an α/β hydrolase likely to be involved in the perception of the plant branching hormone, strigolactone.” Curr Biol 22, 2032-2036 (2012)).
Differential scanning fluorimetry assays were carried out in 20 mM TEA pH 8, 100 mM NaCl, 1× SYPRO Orange (Sigma), 2 μM PHGDH in a volume of 10 μL. Unfolding was monitored using a LightCycler 480 II real-time PCR instrument (λex=465 nm and λem=580 nm) over a linear 20 to 85° C. gradient. Plots of the first derivative of fluorescence vs. temperature were generated in LightCycler software.

pIC50: −log10 of the molar value.

T1 sequence (O43175 whole entry): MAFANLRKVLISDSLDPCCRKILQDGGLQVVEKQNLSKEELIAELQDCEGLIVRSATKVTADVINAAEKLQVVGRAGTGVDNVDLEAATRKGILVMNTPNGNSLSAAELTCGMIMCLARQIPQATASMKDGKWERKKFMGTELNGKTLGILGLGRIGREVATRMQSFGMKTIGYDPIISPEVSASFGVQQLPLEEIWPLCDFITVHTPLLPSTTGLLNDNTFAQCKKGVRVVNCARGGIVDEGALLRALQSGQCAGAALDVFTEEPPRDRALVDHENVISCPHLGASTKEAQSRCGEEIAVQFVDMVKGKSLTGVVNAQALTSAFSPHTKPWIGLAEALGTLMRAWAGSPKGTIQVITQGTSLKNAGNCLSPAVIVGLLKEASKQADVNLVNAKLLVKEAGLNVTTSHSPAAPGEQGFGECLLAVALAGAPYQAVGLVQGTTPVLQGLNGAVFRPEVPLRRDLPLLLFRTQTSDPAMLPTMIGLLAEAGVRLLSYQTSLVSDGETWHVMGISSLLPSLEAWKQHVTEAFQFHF
GAPDH, sequence (P04406 whole entry): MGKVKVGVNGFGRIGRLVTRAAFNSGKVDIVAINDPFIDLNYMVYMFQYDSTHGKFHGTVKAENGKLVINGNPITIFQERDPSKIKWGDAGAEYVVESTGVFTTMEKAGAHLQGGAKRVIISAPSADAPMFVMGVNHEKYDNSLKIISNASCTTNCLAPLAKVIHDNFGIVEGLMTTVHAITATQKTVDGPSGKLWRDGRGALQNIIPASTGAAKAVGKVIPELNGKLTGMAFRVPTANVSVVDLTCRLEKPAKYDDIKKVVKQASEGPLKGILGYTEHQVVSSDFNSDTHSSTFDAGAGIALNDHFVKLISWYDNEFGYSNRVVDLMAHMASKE
HSD17B4, sequence (P51659 whole entry, species assumed): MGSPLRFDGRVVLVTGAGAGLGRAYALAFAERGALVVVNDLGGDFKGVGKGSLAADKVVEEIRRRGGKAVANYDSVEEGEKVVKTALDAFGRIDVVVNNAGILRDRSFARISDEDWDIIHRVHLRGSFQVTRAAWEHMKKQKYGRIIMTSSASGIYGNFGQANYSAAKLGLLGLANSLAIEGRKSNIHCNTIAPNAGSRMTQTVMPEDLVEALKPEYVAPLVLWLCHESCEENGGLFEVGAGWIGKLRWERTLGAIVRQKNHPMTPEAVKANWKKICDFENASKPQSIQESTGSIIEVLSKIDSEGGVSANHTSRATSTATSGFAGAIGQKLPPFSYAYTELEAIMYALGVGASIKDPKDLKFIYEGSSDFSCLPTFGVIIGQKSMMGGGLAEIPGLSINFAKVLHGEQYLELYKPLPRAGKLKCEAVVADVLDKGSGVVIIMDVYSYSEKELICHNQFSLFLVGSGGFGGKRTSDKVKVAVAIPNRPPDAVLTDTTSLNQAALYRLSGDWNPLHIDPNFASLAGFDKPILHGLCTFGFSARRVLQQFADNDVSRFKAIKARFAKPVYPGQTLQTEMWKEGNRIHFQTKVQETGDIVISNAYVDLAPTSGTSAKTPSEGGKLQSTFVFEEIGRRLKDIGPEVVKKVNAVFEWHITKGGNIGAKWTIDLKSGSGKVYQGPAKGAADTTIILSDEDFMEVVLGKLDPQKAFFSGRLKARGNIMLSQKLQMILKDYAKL
ALDH, sequence (P00352 whole entry): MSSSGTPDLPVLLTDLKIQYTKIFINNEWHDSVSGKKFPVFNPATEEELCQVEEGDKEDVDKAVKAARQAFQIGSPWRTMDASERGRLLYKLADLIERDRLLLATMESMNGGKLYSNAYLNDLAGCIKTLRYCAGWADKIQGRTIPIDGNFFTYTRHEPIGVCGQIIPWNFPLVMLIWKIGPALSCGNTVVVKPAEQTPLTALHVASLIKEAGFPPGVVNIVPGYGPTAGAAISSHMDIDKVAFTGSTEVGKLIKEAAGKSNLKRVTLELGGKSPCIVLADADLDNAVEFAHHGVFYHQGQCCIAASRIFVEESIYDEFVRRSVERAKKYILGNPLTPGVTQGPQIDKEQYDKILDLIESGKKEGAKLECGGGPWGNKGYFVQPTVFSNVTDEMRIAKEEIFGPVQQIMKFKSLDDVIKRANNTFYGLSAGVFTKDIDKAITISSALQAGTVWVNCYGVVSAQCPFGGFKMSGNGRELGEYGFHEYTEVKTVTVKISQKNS

Regarding `Cc1cc(C)nc(NC(=S)N2CCN(c3ccncc3)CC2)c1` [Compound 71, N-(4,6-dimethylpyridin-2-yl)-4-(pyridin-4-yl)piperazine-1-carbothioamide], the pIC50 on PHGDH [1] was at most 4.70. Further, the intracellular serine levels entry in assay [2] was “not reduced”.

Turning to `Cc1cc(C)nc(NC(=S)N2CCN(c3ccc(C(F)(F)F)cn3)CC2)c1` [Compound 72, N-(4,6-dimethylpyridin-2-yl)-4-(5-(trifluoromethyl)pyridin-2-yl)piperazine-1-carbothioamide], the results for the pIC50 against HSD17B4, on ALDH and against GAPDH were at most 4.00, 4.30 to 5.00 and at most 4.00, respectively. The “reversibility of inhibition of serine synthesis in cells” value in the assay with MDA-MB-468 cells is reported as “reversible”. For the same compound, the “activity against a panel of other dehydrogenases” value in [3] is “inactive”. The intracellular serine levels entry in assay [2] is on record as “decreased”. Moreover, the “cross-reactivity, modulation of activity” value in the assay with panel of 168 GPCRs was below 30%. For the same compound, the “Tm of PHGDH” value on PHGDH [4] is “decreased”.

For the compound `Cc1cc(C)nc(NC(=S)N2CCN(Cc3ccc(C(F)(F)F)cc3)C(C(=O)O)C2)c1` (stereo not drawn) [Compound 295, 4-((4,6-dimethylpyridin-2-yl)carbamothioyl)-1-(4-(trifluoromethyl)benzyl)piperazine-2-carboxylic acid], the pIC50 at PHGDH [1] was 5.00 to 5.30.

With `Cc1cc(C)nc(NC(=S)N2CCN(Cc3ccc(OC(F)(F)F)cc3)CC2)c1` [Compound 296], the negative-log IC50 (pIC50) on PHGDH [1] was above 5.30.

On to `Cc1cc(C)nc(NC(=S)N2CCN(Cc3ccc(C(F)(F)F)cc3)[C@@H](C)C2)c1` [Compound 297], for which, on PHGDH [1], the pIC50 is above 5.30.

Regarding `Cc1cc(C)nc(NC(=S)N2CCN(Cc3ccc(C(F)(F)F)cc3)[C@H](C)C2)c1` [Compound 298], the pIC50 at PHGDH [1] is above 5.30.

Regarding `Cc1cc(C)nc(NC(=S)N2CCN(Cc3cccc(OC(F)(F)F)c3)CC2)c1` [Compound 299], the pIC50 at PHGDH [1] is above 5.30.

Take `Cc1cc(C)nc(NC(=S)N2CCN(Cc3ccc(C(F)(F)F)c(Cl)c3)CC2)c1` [Compound 300]: the pIC50 at PHGDH [1] was 5.00 to 5.30.

In the case of `Cc1cc(C)nc(NC(=S)N2CCN(CC3CC3)CC2)c1` [Compound 301], the pIC50 at PHGDH [1] was at most 4.70.

`Cc1cc(C)nc(NC(=S)N2CCN(Cc3ccc(C)c(C(F)(F)F)c3)CC2)c1` [Compound 302]: the pIC50 on PHGDH [1] was 5.00 to 5.30.

These data come from patent US11225469B2, “Inhibitors of phosphoglycerate dehydrogenase (PHGDH) and uses thereof” (Whitehead Institute for Biomedical Research, priority 2015, dated 2022).
